Assay results: US5801182A, “Amine substituted compounds” (Cell Therapeutics, Inc., priority 1995, dated 1998)

Assays:
thymocytes = assay: Thymocyte proliferation and activation, co-stimulated with Con A and IL-2; type: cell-based, Balb/C mice; conditions: Mus musculus, 2 h, compound added two hours prior, FIGS. 6-11
Experimental: 3506, 3556, 3563, 3576, 3581, 3582 and 3584 on thymocyte proliferation and activation, co-stimulated with Concanavalin A (Con A) and interleukin-2 (IL-2), at various concentrations of the compounds (IC50). Con A and IL-2 together stimulate T cell proliferation and differentiation.
Thymuses, obtained from normal, female Balb/C mice, were dissociated and plated into 96-well plates at a density of 2×10^5 cells/well. Con A ([…]) and IL-2 (15 U/ml) were added to the wells. The cells were incubated for 4 days at 37° C. On day 4, the cells were pulsed with tritiated thymidine and incubated for an additional 4 hours. Incorporated tritiated thymidine of harvested cells was determined in a liquid scintillation counter. Results plotted as dose concentration versus proliferation for inventive compounds nos. 3506, 3556, 3563, 3576, 3581, 3582 and 3584 are shown in FIGS. 6 (3506), 7 (3556), 8 (3563), 9 (3576), 10 (3581 and 3582) and 11 (3584). Respective concentrations of inventive compound (shown in the figures) were added two hours prior to Con A and IL-2 activation. Background counts were less than 200 cpm.

[1] = system: Mouse bone marrow cells (CFU-GM); assay: CFU-GM colony assay, effect on normal bone marrow cells; type: cell-based; conditions: for effect on normal cells compared to known chemotherapeutic compounds in vitro: vs vinblastine, 5-fluorouracil, doxorubicin or cisplatinum; for toxicity for normal mouse marrow cells: 8 hours incubation, CFU-GM after 7 days, FIGS. 12-16
Excerpt: This example illustrates a method for examining an effect of the inventive compounds, showing potential as cancer therapies on normal cells. This assay has been used clinically to evaluate recovery of patients' marrow following chemotherapy or radiation. In this specific example, inventive compounds nos.
Mouse bone marrow cells are useful in this assay because they produce colonies, which can later be counted, in culture. The colonies are called colony forming unit-granulocyte macrophage (CFU-GM) and depend on a source of colony stimulating factor for growth.
Cells were cultured with inventive compounds nos. 3563, 3576, 3581, 3584 and 4500, to comparatively evaluate an effect on normal cells of inventive compounds identified as potential cancer therapies. Procedurally, cells were incubated for 8 hours with various concentrations of these compounds. A negative control without any compound was simultaneously prepared. After 8 hours, the incubated cells were washed thoroughly and a consistent number were subsequently plated to obtain CFU-GM. Colonies were permitted to grow for 7 days at 37° C., in 5% CO2. After 7 days of growth, colony growths were counted microscopically. Data obtained in this assay for inventive compounds nos. 3563, 3576, 3581, 3584 and 4500 are plotted in FIGS. 12, 13, 14, 15 and 16, respectively. The data in the figures are shown to compare the colonies counted for cells incubated with varying concentrations of the compounds tested against the negative control, without compound. At concentrations ranging from 5 to 30 μM, more colonies existed for cells incubated with the inventive potential cancer compound than with known, chemotherapeutic agents. Compound no.

[2] = system: HIV long terminal repeat (LTR) promotor; assay: Inhibition of reporter gene (alkaline phosphatase) expression directed by HIV-LTR promotor in 293-EBNA cells; type: cell-based; conditions: Human immunodeficiency virus 1; reporter gene directed by HIV-LTR promotor in 293-EBNA cells; FIGS. 17, 19, 21
Excerpt: This example is an assay used to measure anti-viral activity of inventive compounds nos. […] This assay is predictive of anti-viral activity for retroviruses. Specifically,a plasmid construct, pHIV.AP, using the human immunodeficiency virus (HIV) long terminal repeat (LTR) promotor [derived from pU3R-III CAT (Sodroski et al. Science, Vol. 227, page 171, 1985) to direct the expression of secreted human placental alkaline phosphatase reporter gene and an expression vector for a 72 amino acids tat protein from HIV (Frankel et al., Cell, Vol. 55, pages 1189-1193, 1988) were transfected into a tumor cell line (e.g., 293-EBNA cells). The stably transfected cells were treated with various concentrations of the inventive compounds. The expression of the alkaline phosphatase (AP) reporter gene in the individual cultures was then measured by following the change in absorbance at A405 of cell conditioned media in the presence of a suitable substrate (e.g., ortho-nitrophenol phosphate). Berger et al., Gene, Vol. 66, pages 1-10, 1988.

[3] = Viability of 293-EBNA cells (alamarBlue colorimetric assay); type: cell-based; conditions: human, 293-ebna cells; alamarBlue; FIGS. 18, 20, 21; read-out: LD50, 293-EBNA cells
Experimental: (§1) The effect of respective inventive compounds on the viability of 293-EBNA cells was measured by a colorimetric assay that uses the alamarBlue® dye (purchased from Alamar Biosciences, Inc.) to report cell proliferation, viability and cytotoxicity. This dye is an oxidation-reduction (Redox) indicator that changes color in response to chemical reduction of growth medium resulting from cell growth. The general procedure involves adding alamarBlue® in an amount equal to 10% of the culture volume, returning the culture to incubator for four hours, and measuring the absorbance at 570 nm after subtraction of background absorbance at 600 nm.

293-EBNA cells = assay: as above; type: cell-based
Experimental: as §1

human stromal cells = assay: PDGF-induced proliferation in human stromal cells; type: cell-based; conditions: for concentration at which comparative compounds' activity is apparent: 50 ng/ml PDGF-BB, human stromal cells, FIG. 23
Experimental: 3506 on PDGF-induced proliferation in human stromal cells. Procedurally, human stromal cells were starved in serum-free media for 24 hours and then stimulated with 50 ng/ml PDGF. Compound no. 3506 was added at various concentrations one hour prior to PDGF stimulation and pulsed for 24 hours. Cells were harvested and cell proliferation measured having background counts (i.e., starved cells) at about 10% of control levels.
Human stromal cells were starved in serum-free media for 24 hours and then stimulated with 50 ng/ml PDGF-BB. The drugs were added at various concentrations one hour prior to PDGF stimulation. Tritiated thymidine was added at the time of PDGF stimulation and pulsed for 24 hours. Cells were harvested and cell proliferation measured (FIG. 23). Background counts (i.e., starved cells) were about 10% of control levels.

Balb/3T3 cells [4] = assay: PDGF-induced proliferation of Balb/3T3 cells (tritiated thymidine); type: cell-based; conditions: Mus musculus, BALB/3T3, 24 h; PDGF-stimulated; FIGS. 2 and 4; read-out: concentrations inhibiting proliferation of Balb/3T3 cells stimulated by PDGF
Experimental: Disregulated PDGF-proliferative response has been linked to a variety of diseases, including, e.g., restenosis, atherosclerosis, fibrosis, and tumor cell angiogenesis. Balb/3T3 cells respond vigorously to PDGF stimulation, and are useful in vitro models for further study of PDGF-induced proliferation.
Balb/3T3 cells were plated in low serum-containing medium for 24 hours prior to stimulation with various concentrations of inventive compounds nos. 3556 and 4500. PDGF was added at varying concentrations along with tritiated thymidine. The cells were allowed to incubate for one day, following addition of PDGF and thymidine. Twenty-four hours later, the cells were harvested and counted by liquid scintillation counting. FIGS. 2 and 4 report data for inventive compounds nos. 3556 and 4500, respectively, obtained in this proliferation assay. The results shown in each respective figure illustrate that inventive compounds nos.

Balb/3T3 cells [5] = assay: Viability (cytotoxicity) assay of Balb/3T3 cells with BCECF; type: cell-based; conditions: at the concentrations at which the compounds inhibit proliferation; vs control value of 100%; FIGS. 3 and 5
Experimental: In conjunction with the Balb/3T3 proliferation assay, a related viability assay was conducted to assess the cytotoxicity of compounds which inhibit proliferation in this system. The assay protocol was identical to that performed above except that tritiated thymidine was not added after the 24 hour incubation with PDGF. In this cytotoxicity assay, after incubating the cells, a 10 μM solution of BCECF was added and the cells were incubated for 30 minutes at 37° C. Following this incubation, BCECF was replaced with PBS and the plate read for fluorescence in a Millipore cytofluorometer. Data obtained was plotted as a percent of control versus concentration of inventive compound tested. FIGS. 3 and 5 represent the results of this viability assay, for compounds nos. 3556 and 4500, respectively.

JR-CSF strain of HIV-1 = assay: HIV-1 JR-CSF infection of human peripheral blood lymphocytes (p24 antigen ELISA); type: cell-based; conditions: JR-CSF HIV-1, FIG. 22
Experimental: 3556, to prevent promotion of fresh isolates of JR-CSF strain of HIV-1 infection of human peripheral blood lymphocytes (PBL).
In a protocol for infecting a PBL cell suspension, JR-CSF HIV-1 was clarified at low-speed centrifugation (2,000-3,000 rpm) or filtration and stored in aliquots at -70° C. To maintain consistent titers, HIV-1 aliquots were not subjected to repeated freezing and thawing and any remainder was discarded. Virus aliquots were thawed at room temperature or under cold running water for more rapid thawing and maintained in ice after thawing. Just prior to infection of PBL cells, the supernatant or dilution were warmed to room temperature.
Human PBL cells taken from a suitable donor were centrifuged down at 1000 rpm for 5-10 minutes at room temperature. While cells were spinning, the virus inoculum was prepared in medium by adding 10 μg/ml Polybrene®. The centrifuged cells were resuspended in virus inoculum, using 1 ml of virus inoculum per 10^7 cells. A more efficient HIV-1 infection is obtained with smaller amounts of inoculum. The cells were incubated at 37° C. in the presence of virus inoculum for 2 hours, shaking the suspension every half hour. After 2 hours, the suspension was spun down, the virus inoculum removed and the cells were washed with 10 ml of fresh media. […]

CCCCCCCCCCCCN(C)CCCCCCCCCCCn1c(=O)c2c(ncn2C)n(C)c1=O [compound 3576]
IC50 (thymocytes): 0.26 µM | effect on normal cells compared to known chemotherapeutic compounds in vitro [1]: less deleterious to normal cells | IC50 [2]: < 10 µM | CC50 [3]: < 15 µM

CCCCCCCCCCCCCCCNCCCCCCCCCCCn1c(=O)c2c(ncn2C)n(C)c1=O [compound no. 4508]
IC50 [2]: < 10 µM | CC50 [3]: < 10 µM

COc1cc(CNCCCCCCCCCCCn2c(=O)c3c(ncn3C)n(C)c2=O)cc(OC)c1OC [compound no. 3593]
IC50 [2]: < 25 µM | cytotoxicity to 293-EBNA cells (in words) (293-EBNA cells): little cytotoxicity, even at >32 μM

CCCCCCCCCCCCCCCCNCCCCCCCCCCCn1c(=O)c2c(ncn2C)n(C)c1=O [compound 3584]
effect on normal cells compared to known chemotherapeutic compounds in vitro [1]: less deleterious to normal cells | IC50 [2]: < 10 µM | CC50 [3]: < 15 µM

CCCCCCN(CCCCCC)CCCCCCCCCCCn1c(=O)c2c(ncn2C)n(C)c1=O [compound no. 3590]
IC50 [2]: < 20 µM | cytotoxicity to 293-EBNA cells (in words) (293-EBNA cells): little cytotoxicity even at >32 μM

CC(=O)CCCCCCn1c(=O)c2c(ncn2C)n(C)c1=O [A, 1-(7-oxooctyl)-3,7-dimethylxanthine]
concentration at which comparative compounds' activity is apparent (human stromal cells): millimolar concentrations

CCCCCCCCCCCCNCCCCCCCCCCCn1c(=O)c2c(ncn2C)n(C)c1=O [compound no. 3563]
toxicity for normal mouse marrow cells [1]: most cytotoxic to proliferative potential of the mouse marrow cells | effect on normal cells compared to known chemotherapeutic compounds in vitro [1]: less deleterious to normal cells | IC50 [2]: < 4 µM | CC50 [3]: < 7 µM

CCCCCCCCCCCCCCNCCCCCCCCCCCn1c(=O)c2c(ncn2C)n(C)c1=O [compound 3582]
IC50 [2]: < 5 µM | CC50 [3]: < 5 µM

CCCCCCNCCCCCCCCCCCn1c(=O)c2c(ncn2C)n(C)c1=O [compound no. 3580]
IC50 [2]: < 10 µM | CC50 [3]: < 30 µM | cytotoxicity to 293-EBNA cells (in words) (293-EBNA cells): minimal cytotoxicity

CCCCCCN(C)CCCCCCCCCCCn1c(=O)c2c(ncn2C)n(C)c1=O [compound no. 4500]
minimal effective concentration (Balb/3T3 cells [4]): < 30 µM | cytotoxicity to Balb/3T3 cells (Balb/3T3 cells [5]): not cytotoxic to any cells | toxicity for normal mouse marrow cells [1]: virtually no toxicity at elevated concentrations | IC50 [2]: < 10 µM

CCCCCCCCCCNCCCCCCCCCCCn1c(=O)c2c(ncn2C)n(C)c1=O [compound 3581]
effect on normal cells compared to known chemotherapeutic compounds in vitro [1]: less deleterious to normal cells | IC50 [2]: < 5 µM | CC50 [3]: < 10 µM

CC(CCCCn1c(=O)c2c(ncn2C)n(C)c1=O)N(C)C (stereo not drawn) [B, 1-(5-dimethylaminohexyl)-3,7-dimethylxanthine]
concentration at which comparative compounds' activity is apparent (human stromal cells): millimolar concentrations

CCCCCCCCNCCCCCCCCCCCn1c(=O)c2c(ncn2C)n(C)c1=O [compound no. 3556, 1-(11-octylaminoundecyl)-3,7-dimethylxanthine]
minimal effective concentration (Balb/3T3 cells [4]): < 30 µM | cytotoxicity to Balb/3T3 cells (Balb/3T3 cells [5]): not cytotoxic to any cells | IC50 [2]: ~2.5 µM | CC50 [3]: ~12.5 µM | concentration at which cytotoxicity becomes significant (293-EBNA cells): > 10 µM | decrease of HIV-1 infection of PBL (JR-CSF strain of HIV-1; 1 μM): decreased infection by about two to three fold | HIV-1 infection of PBL (JR-CSF strain of HIV-1; 10 and 20 μM): virtually eliminated viral infection

CCCCCCCCCCCNCCCCCCn1c(=O)c2c(ncn2C)n(C)c1=O [compound no. 3506]
PDGF-induced proliferation in human stromal cells (human stromal cells; 50 ng/ml PDGF, compound added one hour prior, FIG. 1): inhibition of PDGF-induced proliferation | IC50 (thymocytes): 2.3 µM

CCCCCCCCCCCCCNCCCCCCCCCCCn1c(=O)c2c(ncn2C)n(C)c1=O [compound 4507]
IC50 [2]: < 4 µM | CC50 [3]: < 7 µM
